Measured values: US20240180956A1, “A VAGINAL CONTRACEPTIVE COMPOSITION FOR REINFORCEMENT OF THE CERVICAL MUCUS BARRIER PROPERTIES” (CIRQLE BIOMEDICAL CONTRACEPTION APS, priority 2021, published 2024)

Tested on: human ovulatory cervical mucus
Assay: Sperm penetration through human cervical ovulatory mucus (capillary assay, phase contrast microscopy)
Assay type: cell-based
Settings: PLL 5 mg/mL in 32.5 mM lactic acid; 30 minutes after exposure to undiluted sperm; vs lactic acid solution alone or untreated
Method: All chitosans were dissolved in a 100 mM or a 32.5 mM lactic acid solution at a concentration of 0.5% (w/v chitosan) and adjusted to pH 5.5 (pH±0.02) by the use of 0.1 or 1 M hydrochloric acid (HCl, Merck KgaA, Germany), and 0.1 or 1 M sodium hydroxide (NaOH, CPAchem Ltd., Bulgaria) or 50% NaOH (Sigma-Aldrich, USA).
Semen samples of patients and volunteers collected at the Andrology, Sexual Medicine, Transmedicine, clinic (ANOVA, Karolinska University Hospital, Sweden) were run through standard semen kinematic analyses and sperm penetration assays no later than 3 h after collection. Data were obtained for the collection time, abstinence time, and semen volume.
Semen was gently liquefied for 30 min on a rocker in an incubation chamber heated up to 37° C., after complete collection of ejaculates by masturbation. The viscosity of semen was determined visually and by pipetting. Semen was microscopically analysed by pipetting 6 μl of specimen in pre-warmed Leja® (Netherland) counting chamber slides (20 micron). Subsequently, specimens were assessed via clinical ECLIPSE 50i microscope (Nikon Instruments, Japan) equipped with stage heater MS 100 (37° C., Linkam Scientific Instruments, UK), 10× objective (Ph1) and 0.5× charge coupled device camera UI-1540LE-M-HQ (IDS Imaging Development Systems GmbH, Germany) with total magnification of 5×. […]

Substance: poly-L-lysine [PLL]
- sperm detected throughout the capillary filled with ovulatory cervical mucus: Less sperm was detected
